PMC2248166, “Quantitative peptide binding motifs for 19 human and mouse MHC class I molecules derived using positional scanning combinatorial peptide libraries” (Immunome Research, 2008)

Tests used:
Type in all cases: binding
[1] = target: HLA A*3001 (Homo sapiens, UniProt P04439, D140H/D185E/E176W/F33S/G80R/H175R/K168Q/R138E/R41S); assay: biochemical
[2] = target: HLA B*0801 (Homo sapiens, UniProt P01889, A93T/A95T/D138N/E176V/E187T/K202T/Q94N/R180D/S35A/V36M/Y33D/Y91F); assay: biochemical
[3] = target: H-2 K^k (Mus musculus, UniProt P04223)
[4] = target: HLA B*5401 (Homo sapiens, UniProt P01889, A329T/C349S/D138N/D201E/E176V/E187T/E204Q/E69G/I76V/K202T/L119W/R155S/R180L/S121T/S35A/S48A/V127L/V306I/V36M/Y140L)
[5] = target: HLA A*6802 (Homo sapiens, UniProt P04439, A269V/D140Y/D185E/E176V/E277Q/E87N/F33Y/G231S/I121R/I166T/I218V/L180W/L300P/L318F/N151K/P208A/P217A/Q86R/R138H/R169H/S129P/T345S/V36M)
[6] = target: HLA B*5802 (Homo sapiens, UniProt P01889, A329T/C349S/D201E/D98Y/E176V/E187L/E204Q/E69T/G107R/I218V/I90N/K202T/L105A/N104I/N87E/Q89R/Q94S/R106L/R155S/R180L/R86G/S101N/S121W/S35A/S48A/V127L/V306I/V36M/Y140S/Y91M)
[7] = target: HLA B*3501 (Homo sapiens, UniProt P01889, A329T/A93T/A95T/C349S/D201E/D98Y/E176V/E187L/E204Q/E69T/I218V/K202T/L119I/Q94N/R155S/R180L/S121R/S35A/S48A/T118I/V127L/V306I/V36M/Y140S/Y91F)
[8] = target: HLA B*1501 (Homo sapiens, UniProt P01889, A329T/A93T/A95T/C349S/D201E/D98Y/E187L/E204Q/E69M/E70A/K202T/N87E/Q94N/R155S/R180W/S121R/S35A/S48A/V306I/V36M/Y140S/Y91S); assay: biochemical
[9] = target: H-2 D^b (Mus musculus, UniProt P01899)
[10] = target: HLA B*5101 (Homo sapiens, UniProt P01889, A329T/A93T/A95T/C349S/D138N/D201E/D98Y/E187L/E204Q/E69T/G107R/I218V/K202T/L105A/L119W/N104I/Q94N/R106L/R155S/R180L/S101N/S121T/S35A/S48A/V306I/V36M/Y195H/Y91F)
[11] = target: HLA B*1503 (Homo sapiens, UniProt P01889, A329T/A93T/A95T/C349S/D201E/D98Y/E187L/E204Q/K202T/N87E/Q94N/R155S/R180L/S121R/S35A/V306I/V36M/Y140S/Y91S); assay: biochemical
[12] = target: HLA B*5301 (Homo sapiens, UniProt P01889, A329T/A93T/A95T/C349S/D201E/D98Y/E176V/E187L/E204Q/E69T/G107R/I218V/K202T/L105A/L119I/N104I/Q94N/R106L/R155S/R180L/S101N/S121R/S35A/S48A/T118I/V127L/V306I/V36M/Y140S/Y91F)
[13] = target: H-2 K^d (Mus musculus, UniProt P01902)
[14] = target: HLA B*5801 (Homo sapiens, UniProt P01889, A329T/C349S/D201E/D98Y/E176V/E187L/E204Q/E69T/G107R/I218V/I90N/K202T/L105A/L119I/N104I/N87E/Q89R/Q94S/R106L/R155S/R180L/R86G/S101N/S121R/S35A/S48A/T118I/V127L/V306I/V36M/Y140S/Y91M)
[15] = target: HLA A*3201 (Homo sapiens, UniProt P04439, A270S/D101S/D185E/E176V/E277Q/F133L/G103R/G107R/G231S/H175R/I121M/I218V/I322F/K168Q/L105A/L300P/L318F/M331R/P208A/P217A/Q94H/R106L/R138Q/S129P/T104I/T323A/T345S/V100E/V321M/V358M); assay: biochemical
[16] = target: H-2 D^d (Mus musculus, UniProt P01900)
Chain of H-2 D^d (P01900 whole entry, looked up): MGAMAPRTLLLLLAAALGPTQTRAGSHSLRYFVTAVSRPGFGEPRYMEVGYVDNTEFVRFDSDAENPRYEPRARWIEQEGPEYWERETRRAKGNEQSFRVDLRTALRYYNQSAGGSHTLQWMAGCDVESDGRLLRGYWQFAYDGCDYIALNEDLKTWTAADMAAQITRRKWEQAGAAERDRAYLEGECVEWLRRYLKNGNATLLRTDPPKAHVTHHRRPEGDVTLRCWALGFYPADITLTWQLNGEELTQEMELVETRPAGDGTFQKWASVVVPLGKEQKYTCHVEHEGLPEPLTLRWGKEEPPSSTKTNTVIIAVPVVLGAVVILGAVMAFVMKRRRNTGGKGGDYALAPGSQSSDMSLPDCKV

Chain of H-2 D^b (P01887 21-119): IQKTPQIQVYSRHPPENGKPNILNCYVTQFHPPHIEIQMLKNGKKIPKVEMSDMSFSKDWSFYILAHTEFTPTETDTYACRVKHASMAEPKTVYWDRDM
Chain of H-2 D^b (P01899 25-362): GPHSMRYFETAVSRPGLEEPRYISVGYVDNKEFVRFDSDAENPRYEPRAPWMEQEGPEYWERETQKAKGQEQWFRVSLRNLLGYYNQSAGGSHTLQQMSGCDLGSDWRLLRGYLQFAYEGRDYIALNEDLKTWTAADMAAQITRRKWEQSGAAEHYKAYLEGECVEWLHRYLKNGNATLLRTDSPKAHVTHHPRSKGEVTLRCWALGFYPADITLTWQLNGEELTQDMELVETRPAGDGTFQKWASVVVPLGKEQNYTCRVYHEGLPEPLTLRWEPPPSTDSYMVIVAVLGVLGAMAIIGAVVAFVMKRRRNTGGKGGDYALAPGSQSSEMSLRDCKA
Chain of H-2 K^k (P01887 21-119): as the sequence (P01887 21-119) above
Chain of H-2 K^k (P04223 22-369): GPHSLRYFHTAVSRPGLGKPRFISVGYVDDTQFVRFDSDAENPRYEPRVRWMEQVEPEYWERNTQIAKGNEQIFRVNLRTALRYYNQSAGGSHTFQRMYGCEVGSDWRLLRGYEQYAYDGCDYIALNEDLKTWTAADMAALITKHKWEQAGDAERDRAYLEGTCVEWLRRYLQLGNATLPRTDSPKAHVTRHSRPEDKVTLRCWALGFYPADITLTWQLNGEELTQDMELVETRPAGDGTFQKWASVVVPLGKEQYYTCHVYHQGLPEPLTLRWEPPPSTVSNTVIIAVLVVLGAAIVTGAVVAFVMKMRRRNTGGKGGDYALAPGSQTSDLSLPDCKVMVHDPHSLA
Chain of H-2 K^d (P01887 21-119): as the sequence (P01887 21-119) above
Chain of H-2 K^d (P01902 22-368): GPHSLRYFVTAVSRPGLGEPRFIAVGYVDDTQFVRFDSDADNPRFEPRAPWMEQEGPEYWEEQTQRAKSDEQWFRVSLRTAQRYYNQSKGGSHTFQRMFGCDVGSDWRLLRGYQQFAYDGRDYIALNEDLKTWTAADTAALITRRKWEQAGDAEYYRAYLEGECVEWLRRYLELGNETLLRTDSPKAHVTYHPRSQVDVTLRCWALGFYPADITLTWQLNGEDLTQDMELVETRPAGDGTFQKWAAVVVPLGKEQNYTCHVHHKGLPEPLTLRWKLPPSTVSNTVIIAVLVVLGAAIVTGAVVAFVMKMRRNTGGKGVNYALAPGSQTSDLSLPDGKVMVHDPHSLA

Sequence	Normalized average relative binding affinity(ARB) [1]	Normalized average relative binding affinity(ARB) [2]	Normalized average relative binding affinity(ARB) [3]	Normalized average relative binding affinity(ARB) [4]	Normalized average relative binding affinity(ARB) [5]	Normalized average relative binding affinity(ARB) [6]	Normalized average relative binding affinity(ARB) [7]	Normalized average relative binding affinity(ARB) [8]	Normalized average relative binding affinity(ARB) [9]	Normalized average relative binding affinity(ARB) [10]	Normalized average relative binding affinity(ARB) [11]	Normalized average relative binding affinity(ARB) [12]	Normalized average relative binding affinity(ARB) [13]	Normalized average relative binding affinity(ARB) [14]	Normalized average relative binding affinity(ARB) [15]	Normalized average relative binding affinity(ARB) [16]
XXXXXXPXX [3064.0133]	1.0	0.36	0.10	0.32	0.37	1.0	0.31	0.62	0.26	0.53	0.16	0.50	0.021	0.22	0.088	0.020
XXXSXXXXX [3064.0076]	0.76	0.48	0.28	0.14	1.0	1.0	0.090	1.0	0.83	0.92	0.78	0.44	0.28	0.74	0.26	0.58
XXXXXHXXX [3064.0107]	0.16	0.12	0.20	1.0	0.11	0.27	0.26	0.28	0.36	0.33	0.25	0.30	0.31	0.40	0.50	0.48
XXXXRXXXX [3064.0095]	0.80	1.0	0.072	0.21	0.19	0.20	0.23	0.64	0.020	0.49	0.28	0.11	0.023	0.15	0.27	1.0
XXXXXXTXX [3064.0137]	0.11	0.46	0.061	0.33	0.60	0.057	0.27	0.49	0.67	0.58	0.16	0.081	1.0	0.28	0.14	0.029
XXXXXXVXX [3064.0138]	0.19	0.55	0.079	0.77	0.80	0.073	0.57	0.56	0.57	0.57	0.19	0.32	0.13	0.53	1.0	0.045
XXXLXXXXX [3064.0070]	0.52	0.61	0.96	0.74	0.14	0.50	0.10	0.56	0.96	0.69	0.46	0.17	0.17	0.42	0.098	0.52
XXXXXXXPX [3064.0153]	0.80	0.73	0.44	0.72	0.33	0.16	0.64	0.35	1.0	0.51	0.30	0.15	0.75	0.18	0.87	0.73
